# Literature values, collected in patent US20120149888A1, “SYNTHESIS OF ARA-2'-O-METHYL-NUCLEOSIDES, CORRESPONDING PHOSPHORAMIDITES AND OLIGONUCLEOTIDES INCORPORATING NOVEL MODIFICATIONS FOR BIOLOGICAL APPLICATION IN THERAPEUCTICS, DIAGNOSTICS, G- TETRAD FORMING OLIGONUCLEOTIDES AND APTAMERS” (priority 2009, published 2012).
# Entries after “also recorded” stand apart in the source; their conditions may differ. Where two headings read alike, the source gives them in different places.
# B1: L-asparaginase: L-asparaginase, enzyme drug (protein, UniProt P00805 23-348, looked up)
# L-asparaginase 2: LPNITILATGGTIAGGGDSATKSNYTVGKVGVENLVNAVPQLKDIANVKGEQVVNIGSQDMNDNVWLTLAKKINTDCDKTDGFVITHGTDTMEETAYFLDLTVKCDKPVVMVGAMRPSTSMSADGPFNLYNAVVTAADKASANRGVLVVMNDTVLDGRDVTKTNTTDVATFKSVNYGPLGYIHNGKIDYQRTPARKHTSDTPFDVSKLNELPKVGIVYNYANASDLPAKALVDAGYDGIVSAGVGNGNLYKSVFDTLATAAKTGTAVVRSSRVPTGATTQDAEVDDAKYGFVASGTLNPQKARVLLQLALTQTKDPQQIQQIFNQY
# Assays:
# [1] = tested on: 11 human tumor xenografts; conditions: 11 xenografts
# [2] = tested on: equilibrative NBMPR-sensitive nucleoside transporter (es); conditions: growth-inhibitory concentrations
# [3] = tested on: explants of intact rat colonic mucosa
# [4] = tested on: Ehrlich ascites resistant to 5-fluorodeoxyuridine (FUdR); conditions: 5-Fluorodeoxyuridine-resistant Ehrlich ascites
# Ehrlich ascites (AZU 1) = conditions: 6-Azauracil-resistant Ehrlich ascites (AZU 1)
# [5] = rhesus monkey, in vivo
# P815/FU = conditions: 5-Fluorouracil-resistant P815/FU
# AKR/r-AzCR = conditions: 5-Azacytidine-resistant AKR/r-AzCR
# L1210/CA = conditions: 1β-D-Arabinofuranosylcytosine-resistant L1210/CA
# [6] = tested on: ara-C-resistant neoplasms
# mouse leukemia L1210 = conditions: L1210 cells
# [7] = tested on: human nasopharyngeal KB cells
# [8] = tested on: 36 human tumor cell lines
# Ehrlich ascites (EAC-R2) = conditions: 6-Methyl thiopurine ribonucleoside-resistant Ehrlich ascites (EAC-R2)
# [9] = tested on: nucleoside transport (thymidine uptake); conditions: for Ki: read-out: Ki value for inhibition of thymidine uptake
# [10] = in vivo
# ovarian cancer = conditions: previously treated patients
# [11] = Thioguanine-resistant L1210 TG/R
# [12] = 6-Mercaptopurine-resistant L1210/MP(III)
# [13] = 5-Fluorouracil-resistant P815-E176
molecule,measurement,setting,value
O=c1[nH]cc(F)c(=O)[nH]1 [5-fluorouracil],human tumors with potent inhibition,[1],only one tumor
same,expression of es,[2],increases
same,incorporation of tritiated TdR into DNA,[3],not altered
same,levels of tritiated deoxyuridine,[3],reduced
same,Response to chemotherapeutic drugs: Cross-resistant,L1210 TG/R; [11],5-Fluorouracil
same,Response to chemotherapeutic drugs: Cross-resistant,[4],5-Fluorouracil
same,Response to chemotherapeutic drugs: collaterally sensitive,Ehrlich ascites (AZU 1),5-Fluorouracil
same,Response to chemotherapeutic drugs: collaterally sensitive,Ehrlich ascites (AZU 1); listed as FU,collaterally sensitive
"Nc1ncn([C@@H]2O[C@H](CO)[C@@H](O)[C@@H]2O)c(=O)n1 [AAC, Arabinosyl-5-azacytosine]",CSF clearance exceeds the rate of CSF bulk flow,[5],5 fold
same,"greater CSF drug exposure, intrathecal or intraventricular versus systemic",[5],50 fold
same,"area under the CSF concentration x time curve, intraventricular 10 mg versus intravenous 200 mg/kg",[5]; 200 mg/kg,fifty fold
same,"peak CSF concentration, intraventricular 10 mg versus intravenous 200 mg/kg",[5]; 200 mg/kg,one hundred
same,CSF clearance,"[5]; icv or intrathecal, 10 mg",0.2 mL/min
"Nc1nc(=O)n([C@@H]2O[C@H](CO)[C@@H](O)[C@@H]2O)cc1F [Ara-FC, 1β-D-arabinofuranosyl-5-fluorocytosine]",Response to chemotherapeutic drugs: Same as parent line,P815/FU,Ara-FC
same,Response to chemotherapeutic drugs: Same as parent line,P815/FU; listed as ara-FC,retained the same sensitivity
"Nc1ncn([C@H]2C[C@H](O)[C@@H](CO)O2)c(=O)n1 [AzCdR, 5-aza-2′-deoxycytidine]",Response to chemotherapeutic drugs: Cross-resistant,AKR/r-AzCR,cross-resistant; also recorded: AzCdR
"O=NN(CCCl)C(=O)NCCCl [BCNU, 1,3-bis(2-chloroethyl)-1-nitrosourea]",Response to chemotherapeutic drugs: Same as parent line,L1210/CA,BCNU
COC(COC(N)=O)C1=C(N2CC2)C(=O)C(C)=C(N2CC2)C1=O (stereo not shown) [Carbazilquinone],Response to chemotherapeutic drugs: collaterally sensitive,"L1210/MP(III); mouse, in vivo",collateral sensitivity; also recorded: Carbazilquinone
same,Response to chemotherapeutic drugs: Same as parent line,L5178Y/ara-C; in vivo,Carbazilquinone
same,cross-resistance of ara-C-resistant neoplasms to the drug,[6]; in vivo,no cross-resistance
Nc1nc(N)c2c(Cl)c(CNc3ccc(C(=O)N[C@@H](CC(=O)O)C(=O)O)cc3)ccc2n1 [Chlorasquin],Response to chemotherapeutic drugs: collaterally sensitive,"L1210/MP(III); mouse, in vivo",Chlorasquin
O=c1[nH]c(=O)n([C@H]2C[C@H](O)[C@@H](CO)O2)cc1F [Compound 5-FUdR],incorporation of tritiated TdR into DNA,[3],not altered
same,levels of tritiated deoxyuridine,[3],reduced
"O=c1cnn([C@@H]2O[C@H](CO)[C@@H](O)[C@H]2O)c(=O)[nH]1 [Compound 6-Azauridine, 6-Azauridine]",Response to chemotherapeutic drugs: Cross-resistant,Ehrlich ascites (AZU 1),6-Azauridine
same,Response to chemotherapeutic drugs: Cross-resistant,Ehrlich ascites (AZU 1); listed as 6-azauridine,cross-resistant
"O=c1[nH]c(=O)n([C@H]2C[C@H](O)[C@@H](CO)O2)cc1C(F)(F)F [Compound F3TdR, 5-trifluoromethyl-2′-deoxyuridine]",Response to chemotherapeutic drugs: Cross-resistant,[4],cross-resistant; also recorded: F3TdR
O=P1(N(CCCl)CCCl)NCCCO1 (stereo not shown) [Cytoxan],Response to chemotherapeutic drugs: Same as parent line,"L1210 TG/R; mouse, in vivo",no change in response; also recorded: Cytoxan
same,Response to chemotherapeutic drugs: Same as parent line,P815-E176; in vivo,no change in response; also recorded: Cytoxan
same,Response to chemotherapeutic drugs: Same as parent line,L5178Y/ara-C; in vivo,Cytoxan
"CN(Cc1cnc2nc(N)[nH]c(=O)c2n1)c1c(Cl)cc(C(=O)NC(CCC(=O)O)C(=O)O)cc1Cl (stereo not shown) [DCM, 3′,5′-dichloromethopterin]",Response to chemotherapeutic drugs: Same as parent line,L1210/CA,DCM
"C#C[C@@]1(O)[C@@H](CO)O[C@@H](n2ccc(=O)[nH]c2=O)[C@@H]1O [EUrd, 1-(3-C-ethynyl-beta-D-ribo-pentofuranosyl)uracil]",IC50,mouse leukemia L1210,130 nM
same,IC50,[7],29 nM
same,1050 values,[8],nanomolar to micromolar range
same,human tumors with potent inhibition,[1],8 of 11
Nc1ncnc2c([C@@H]3O[C@H](CO)[C@@H](O)[C@H]3O)[nH]nc12 [Formycin],Response to chemotherapeutic drugs: Cross-resistant,Ehrlich ascites (EAC-R2),Formycin
Nc1n[nH]c(N)n1 [Guanazole],Response to chemotherapeutic drugs: Same as parent line,L1210/ara-C; in vivo,Guanazole TSC
same,cross-resistance of ara-C-resistant neoplasms to the drug,[6]; in vivo,no cross-resistance
CCOC(=O)NO [Hydroxycarbamic Acid ethyl ester],Response to chemotherapeutic drugs: Same as parent line,L1210/CA,Hydroxycarbamic
"N[C@@H](Cc1ccc(N(CCCl)CCCl)cc1)C(=O)O [L-PAM, L-phenylalanine mustard methanol]",Response to chemotherapeutic drugs: collaterally sensitive,"L1210 TG/R; mouse, in vivo",L-PAM
same,Response to chemotherapeutic drugs: collaterally sensitive,P815-E176; in vivo,L-PAM
Cc1c(CNc2ccc(C(=O)N[C@@H](CC(=O)O)C(=O)O)cc2)ccc2ncnc(N)c12 [Methasquin],Response to chemotherapeutic drugs: collaterally sensitive,L1210/MP(III); [12],Methasquin
CN(Cc1cnc2nc(N)nc(N)c2n1)c1ccc(C(=O)N[C@@H](CCC(=O)O)C(=O)O)cc1 [Methotrexate],Response to chemotherapeutic drugs: collaterally sensitive,L1210/MP(III); [12],collaterally sensitive
same,Response to chemotherapeutic drugs: Same as parent line,L1210 TG/R; [11],Methotrexate
same,Response to chemotherapeutic drugs: Same as parent line,"L1210 TG/R; Thioguanine-resistant L1210 TG/R, listed as methotrexate",not altered
same,Response to chemotherapeutic drugs: Same as parent line,P815-E176; [13],Methotrexate
same,Response to chemotherapeutic drugs: Same as parent line,L5178Y/ara-C; L5178Y/ara-C,Methotrexate
COCC(COc1nc(N2CCCCC2)c2nc(OCC(COC)OC)nc(N3CCCCC3)c2n1)OC (stereo not shown) [NU3059],growth inhibitory activity of the TS inhibitor CB3717,L1210 cells; analogue 10 microM,enhance
COc1ccc(CNc2nc(N(CCO)CCO)nc3c(NCc4ccc(OC)cc4)nc(N(CCO)CCO)nc23)cc1 [NU3076],inhibition of thymidine uptake in the presence of AGP,[9]; AGP 5 mg ml(−1),not significantly affected
same,Ki,[9],100 nM
same,FU cytotoxicity,L1210 cells,significant potentiation
same,reduction of the LC90 of nolatrexed,L1210 cells,> threefold
"NC(=S)NN=Cc1ccccn1 [TSC, pyridine-2-carboxaldehyde thiosemicarbazone]",Response to chemotherapeutic drugs: Same as parent line,"L1210/ara-C; L1210/ara-C (Schabel et al., 1971)",Guanazole TSC
same,cross-resistance of ara-C-resistant neoplasms to the drug,[6]; several other ara-C-resistant neoplasms,no cross-resistance
"Cc1cn([C@H]2C[C@H](O)[C@@H](CO)O2)c(=O)[nH]c1=O [TdR, Thymidine]",expression of es,[2],no significant effect
"S=P(N1CC1)(N1CC1)N1CC1 [Thio-TEPA, triethylenethiophosphoramide]",Response to chemotherapeutic drugs: collaterally sensitive,"L1210 TG/R; mouse, in vivo",Thio-TEPA
same,Response to chemotherapeutic drugs: Cross-resistant,P815-E176; in vivo,cross-resistance; also recorded: Thio-TEPA
Nc1nc2nc[nH]c2c(=S)[nH]1 [Thioguanine],Response to chemotherapeutic drugs: Same as parent line,P815-E176; [13],Thioguanine
C[C@@]1(CO)[C@H](O)CC[C@@]2(C)[C@H]1CC[C@H]1C[C@@H]3C[C@@]12CC[C@]3(O)CO [aphidicolin],expression of es,[2],no significant increase
[N-]=[N+]=CC(=O)OC[C@H](N)C(=O)O [azaserine],Response to chemotherapeutic drugs: collaterally sensitive,L1210/MP(III); [12],collaterally sensitive
same,Response to chemotherapeutic drugs: Same as parent line,L1210 TG/R; [11],not altered; also recorded: azaserine
same,Response to chemotherapeutic drugs: Same as parent line,P815-E176; [13],Azaserine
OCCN(CCO)c1nc(N2CCCCC2)c2nc(N(CCO)CCO)nc(N3CCCCC3)c2n1 [dipyridamole],Ki,[9],280 nM
same,incorporation of tritiated TdR into DNA,[3],reduced
same,reduction of the LC90 of nolatrexed,L1210 cells; absence of salvageable thymidine,> threefold
CO[C@@]12[C@H](COC(N)=O)C3=C(C(=O)C(C)=C(N)C3=O)N1C[C@@H]1N[C@@H]12 [mitomycin C],Response to chemotherapeutic drugs: collaterally sensitive,"L1210/MP(III); mouse, in vivo",collaterally sensitive
"NC(=O)c1csc([C@@H]2O[C@H](CO)[C@@H](O)[C@H]2O)n1 [tiazofurin, 2-B-D-Ribofuranosylthiazole-4-Carboxamide]",antitumor activity,[10],No antitumor activity was observed
same,dose limiting toxicities,[10],pericarditis and clinical symptoms suggestive of a more generalized serositis
same,maximally tolerated dose,[10],1650 mg/m2
same,patients with sustained depletion of guanine nucleotide pools,[10],1 of 6
Neocarzinostatin,Response to chemotherapeutic drugs: collaterally sensitive,"L1210/MP(III); mouse, in vivo",collateral sensitivity; also recorded: Neocarzinostatin
gemcitabine-cisplatin,"response, doublets",ovarian cancer,53%
B1,Response to chemotherapeutic drugs: Cross-resistant,L5178Y/ara-C; L5178Y/ara-C,L-asparaginase
same,Response to chemotherapeutic drugs: collaterally sensitive,L5178Y/ara-C; L5178Y/ara-C,collaterally sensitive
